Experimental data as given in patent US20260227411A1, “CONJUGATED METABOLITES FOR CANCER DETECTION AND TREATMENT” (VANDERBILT UNIVERSITY, priority 2023, published 2026).

How the values were obtained:
[1] = test system: Gif-rtTA; TetO-Cre; Kras^G12D (GCK) mice; assay: In vivo A939572 treatment of GCK mice; conditions: 20 mg/kg intraperitoneal daily for 2 weeks
Experimental: All experiments involving mice used in this study followed protocols approved by the Institutional Animal Care and Use Committees of Vanderbilt University Medical Center. Littermates or age-matched mice were randomly allocated to experimental or control groups. Animal weights were recorded at initiation of experiment and at the time of euthanasia. To generate the Gif-rtTA; TetO-Cre; Kras^G12D (GCK) mice, the Gif-rtTA mice were crossed with TetO-Cre mice and Lox-Stop-Lox (LSL)-Kras^G12D mice (no. 006224 and 008179, Jackson Laboratories). For the induction of Cre-mediated recombination, 6-week-old mice were administered with doxycycline water at a concentration of 1 mg/mL for 2 weeks. Mice were sacrificed at 2 to 14 weeks after doxycycline treatment for histological examination. For in vivo A939572 treatment, A939572 (HY-50709; MedChemExpress) was dissolved in dimethyl sulfoxide (DMSO) as a 100 mg/mL stock and stored at −80° C. in aliquots. The A939572 was administered daily for two weeks by intraperitoneal injection (20 mg/kg diluted in corn oil) to mice at 6 weeks after doxycycline treatment. Mice were sacrificed within a day after the last A939572 treatment.
Mouse tissues were isolated and fixed overnight in 4% paraformaldehyde, embedded in paraffin. Paraffin-embedded sections were sectioned at a thickness of five-micrometer and stained with hematoxylin and eosin (H&E). For immunostaining, unstained paraffin tissue sections were deparaffinized in HistoClear (HS-200, National Diagnostics) and rehydrated through a serial dilution of ethanol. Antigen retrieval was performed in target retrieval solution (S1699 or S2367, Agilent) using a pressure cooker for 15 minutes. Sections were rinsed in dH2O and incubated with Serum-free Protein Block Solution (X0909, Agilent) for 1.5 hours at room temperature (RT). Sections were additionally incubated with Mouse on Mouse Blocking Reagent (MKB-2213-1, Vector Laboratories) for 30 min at RT to block nonspecific staining with primary antibodies generated in mice on mouse tissues. Primary antibodies were diluted in Antibody Diluent (S3022, Agilent) and applied to sections overnight at 4° C.
For immunofluorescence, paraffin sections were washed with 1×PBS three times and incubated with Alexa-conjugated secondary antibodies (Life Technologies, 1:500) for 1 hour at RT. Sections were washed with 1×PBS three times and incubated with Hoechst 33342 (62249, Thermo Fisher Scientific, 1:5000) for 5 min at RT. The sections were then washed with 1×PBS three times and mounted with Prolong gold anti-fade reagent (P36934, Thermo Fisher Scientific). Images were captured on a Zeiss Axio Imager M2 microscope with Axiovision digital imaging system at 20× magnification. For immunohistochemistry, paraffin sections were washed with 1×PBS three times and incubated with HRP-conjugated secondary antibodies (MP-7402, Vector Laboratories) for 15 min at RT. Sections were washed with 1×PBS three times and incubated with Envision+ Detection System Peroxidase/DAB substrate (Dako). Sections were then washed with dH2O and counterstained Mayer's Hematoxylin (MHS32, Sigma-Aldrich). The sections were dehydrated and mounted with aqueous mounting medium. The sections were scanned on an SCN400 Slide Scanner (Leica Biosystems) at 20× magnification. TUNEL staining was performed using the Click-iT Plus TUNEL assay kit, according to the manufacturer's protocol (C10618, Life Technologies).
H&E-stained sections were scanned in SCN400 Slide Scanner and analyzed by Aperio ImageScope software (Leica Biosystems). Gland types were classified using the same diagnostic criteria used for human tissue sections. Briefly, the gland representing foveolar hyperplasia without goblet cells and mucous metaplasia at the base was diagnosed as a pyloric metaplastic gland, while intestinal metaplasia was determined by presence of basophilic mucin droplet-containing cells in the foveolar region.

[2] = test system: human gastric organoid lines; assay: A939572 treatment of human gastric organoid lines; assay type: cell-based; conditions: 1 μM for human
dysplastic organoids [3] = assay: Metabolic enzyme inhibitor treatment of mouse dysplastic organoids; assay type: cell-based
Experimental: (§1) Mouse gastric organoids were established from corpus of untreated or Gif-rtTA; TetO-Cre; KrasG12D (GCK) mouse stomachs as described previously. The GCK mouse gastric organoids were cultured in ECM Gel (E1270, Sigma-Aldrich) or Cultrex® Reduced Growth Factor Basement Membrane Extract, Type R1 (3433-005-R1, R&D systems) with Mouse IntestiCult medium (06005, StemCell Technology) supplemented with 1% of penicillin/streptomycin (2441832, Gibco) in 48-well plates. The medium was replaced every 3 days and organoids were split every 3 to 5 days. Human gastric organoids were previously established from patients who underwent curative gastrectomy as described. The human gastric organoids were cultured in Corning™ Matrigel™ Membrane Matrix (356231, Thermo Fisher Scientific) with Human IntestiCult medium (06010, StemCell Technology) supplemented with 1% of penicillin/streptomycin, 0.2% of MycoZap (VZA-2031, Lonza) in a 48-well plate.
For metabolic enzyme inhibitor treatment, the media was switched to metabolic enzyme inhibitor containing media at one day after splitting the mouse gastric organoids and cultured for 3 days. For metabolite treatment, mouse gastric organoids were treated 100 nM A939572 with metabolites (cis-11-eicosenoic acid or cis-7,10,13,16-docosatetraenoic acid) at one day after splitting the mouse gastric organoids and cultured for 3 days. […] Quantitative data analyses were performed using at least 3 wells of images at 4× magnification. For measurement of organoid growth, phase contrast images of organoids were captured over time and measured at the widest diameters using the ZEN 3.3 blue edition (Zeiss) measuring tool. […]
To determine the role of metabolic switch in dysplastic cells, expression levels of key metabolic enzymes, important for glycolysis or FA metabolism, were examined using gastric organoids established from each stage of GCK mice (FIG. 4A). […] The functional roles of metabolic pathways were assessed using key enzyme inhibitors in dysplastic organoids which highly expressed SCD1 (FIG. 4E). […]

normal gastric organoids = assay: A939572 treatment of normal gastric organoids; assay type: cell-based, mouse; conditions: 100 nM A939572
Experimental: as §1, with “The human gastric organoids were cultured in Corning™ Matrigel™ Membrane Matrix (356231, Thermo Fisher Scientific) with Human IntestiCult medium (06010, StemCell Technology) supplemented with 1% of penicillin/streptomycin, 0.2% of MycoZap (VZA-2031, Lonza) in a 48-well plate.” left out
For metabolic enzyme inhibitor treatment, the media was switched to metabolic enzyme inhibitor containing media at one day after splitting the mouse gastric organoids and cultured for 3 days. […] Quantitative data analyses were performed using at least 3 wells of images at 4× magnification. For measurement of organoid growth, phase contrast images of organoids were captured over time and measured at the widest diameters using the ZEN 3.3 blue edition (Zeiss) measuring tool. […]

dysplastic organoids [4] = assay: Metabolite rescue of A939572-treated dysplastic organoids; assay type: cell-based, mouse
Experimental: For metabolic enzyme inhibitor treatment, the media was switched to metabolic enzyme inhibitor containing media at one day after splitting the mouse gastric organoids and cultured for 3 days. For metabolite treatment, mouse gastric organoids were treated 100 nM A939572 with metabolites (cis-11-eicosenoic acid or cis-7,10,13,16-docosatetraenoic acid) at one day after splitting the mouse gastric organoids and cultured for 3 days. The EVOS M7000 inverted microscope (Thermo Fisher Scientific) or JuLI™ stage, a Real-Time Cell History Recorder (NanoEntek) were used to capture phase contrast images of the organoids or monitor the growth and morphological changes of the organoids in real-time. Quantitative data analyses were performed using at least 3 wells of images at 4× magnification. For measurement of organoid growth, phase contrast images of organoids were captured over time and measured at the widest diameters using the ZEN 3.3 blue edition (Zeiss) measuring tool. For Calcein AM/Ethidium-1(EthD-1) staining, mouse gastric organoids were cultured for 1 day after splitting and transferred to microfluidic-based flowchips (Protein Fluidics) that can enable 3D cell-based assay. The media containing 100 nM A939572 with metabolites (cis-11-eicosenoic acid or cis-7,10,13,16-docosatetraenoic acid) was added to the top of the organoids and cultured for 3 days. Then, the organoids were stained with […] (L3224, Thermo Fisher Scientific) for 30 min at 37° C. Confocal imaging was performed on a Zeiss LSM 880 using a 20× magnification. To prepare Formalin-Fixed, Paraffin-Embedded (FFPE) organoid sections, whole mouse or human gastric organoids in Matrigel™ were fixed in 4% PFA for 30 min at RT and washed with 1×PBS twice. The organoids were embedded in Epredia™ HistoGel™ (HG-4000-012, Thermo Fisher Scientific) and processed according to a standard histological protocol for paraffin embedding.
To address how and why dysplastic cells utilize the SCD-dependent FA desaturation, experiments examined the functions of two different unsaturated long-chain FAs, MUFA (FFA 20:1) and PUFA (FFA 22:4), which were abundant in dysplasia. Two metabolites, Eicosenoic acid (EA; 20:1n9, MUFA) and Docosatetraenoic acid (DA; 22:4n6, PUFA) (FIG. 7A) were selected based on the enhanced fragment ions detected from imaging mass spectrometry (FIG. 3E). Dysplastic organoids were co-treated with A939572, in combination with either EA or DA for 3 days. […] To determine the subcellular localization of EA in dysplastic cells, EA was conjugated with NBD, a green-fluorescent compound (NBD-EA) (FIG. 7B and FIG. 8A-B). […] Since the EA is imported into mitochondria, experiments further examined whether the EA undergoes FA oxidation which occurs in the mitochondrial aerobic metabolism and produces energy substrate for the TCA cycle.

AGS = assay: EA-DM1 treatment of gastric cancer cell line AGS; assay type: cell-based
Experimental: (§2) FIG. 9A-B show cells treated with EA-DM1 (cis-11-eicosenoic acid conjugated to mertansine (DM1)). […] DMSO was used as a vehicle control. […] The NIH-3T3 cell line was used as a negative control, and mouse normal cells and DMSO were used as a vehicle control.
(§3) To evaluate whether EA-DM1 (cis-11-eicosenoic acid conjugated to mertansine (DM1)) could be internalized and release free DM1 toxin into the cytosol, two different gastric cancer cell lines, AGS and NCI-N87, were treated with EA-DM1 for 2 days (FIG. 9A-B). Gastric cancer cells died within 2 days after the EA-DM1 treatment at 100 nM concentration (FIG. 9A).

NCI-N87 = assay: EA-DM1 treatment of gastric cancer cell line NCI-N87; assay type: cell-based; conditions: 100 nM
Experimental: as §2, §3

NIH-3T3 cells = assay: EA-DM1 treatment of NIH-3T3 cells (negative control); assay type: cell-based, mouse; conditions: 5 nM, 2 days
Experimental: as §2, §3

dysplastic cells = assay: Subcellular localization of NBD-EA in 2-dimensional monolayer culture; assay type: cell-based, mouse
Experimental: Mouse gastric organoids were dissociated into single cells and dissociated cells (5,000 cells/well) were seeded on the collagen-coated 8-well chamber slide (ibidi) in Mouse IntestiCult medium (06005, StemCell Technology) for two days until the cells reach at 50% confluency. The cells were incubated with NBD (Compound A) or NBD-conjugated Eicosenoic acid over time and then stained with 100 nM MitoTracker™ Red CMXRos (M7512, Thermo Fisher Scientific) for 20 min at 37° C. The cells were washed with pre-warmed 1×PBS three times and counterstained with Hoechst for 5 min at RT. Confocal imaging was performed on a Zeiss LSM 880 using 63× magnification.

[5] = co-treated with 100 nM A939572 for 3 days

## CNC(=O)c1cccc(NC(=O)N2CCC(Oc3ccccc3Cl)CC2)c1 [A939572, 4-(2-chlorophenoxy)-N-(3-(methylcarbamoyl)phenyl)piperidine-1-carboxamide]
[1]
  F4/80+CD68+ macrophages: slightly increased only at the base of glands
  F4/80+CD68- macrophage infiltration: significantly increased in the transitioning and surface areas
  SPEM cells after treatment: still present at the gland base and not co-positive for cleaved caspase-3 or TUNEL signal
  dead cells within the transitioning cell zone (cleaved caspase-3, TUNEL): significant increase in dead cells
[1]; at 6 weeks after doxycycline
  effects in other organs: without any effects in other organs
  gastric mucosa histology (H&E): flattened mucosa and loss of histological characteristics of dysplastic cells in the transitioning and surface areas of glands
[2]; organoid lines with dysplastic histology expressing both SCD and Trop2
  time within which organoids died after treatment: ≤ 6 days
[2]; organoids with low level of SCD, Trop2 negative (metaplastic)
  response to treatment: did not respond to the treatment
Dysplastic organoids [3]; 100 nM A939572
  time within which dysplastic organoid growth and survival were impeded: ≤ 1 days
Dysplastic organoids [3]; 100 nM A939572, IF staining
  cell proliferation (Ki-67) in dysplastic organoids: a decrease in cell proliferation
  cleaved caspase-3 positive apoptotic cells in dysplastic organoids: accumulation of cleaved caspase-3 positive apoptotic cells in the central lumen of dysplastic organoids
Normal gastric organoids
  response of normal gastric organoids: did not show any significant changes

## CCCCCC=CCC=CCC=CC/C=C\CCCCCC(=O)O [DA, cis-7,10,13,16-docosatetraenoic acid]
Dysplastic organoids [4]; [5]
  rescue of dysplastic organoids from SCD inhibition (organoid size): did not show any differences compared to the organoids treated only with A939572

## CCCCCCCC/C=C\CCCCCCCCCC(=O)O [EA, cis-11-eicosenoic acid]
Dysplastic organoids [4]; [5]
  organoid structure: not disrupted and showed clear central lumens
  rescue of dysplastic organoids from SCD inhibition (organoid size): recovered from SCD inhibition and displayed a significant increase in size

## CCCCCCCC/C=C\CCCCCCCCCC(=O)N1CCN(C(=O)CSCCC(=O)N(C)[C@H](C)C(=O)O[C@@H]2CC(=O)N(C)c3cc(cc(OC)c3Cl)C/C(C)=C/C=C/[C@H](OC)[C@]3(O)C[C@@H](OC(=O)N3)[C@H](C)[C@H]3O[C@@]32C)CC1 [EA-DM1, (1^4S,1^6S,3^2S,3^3R,2R,4S,10E,12E,14R)-8^6-chloro-1^4-hydroxy-8^5,14-dimethoxy-3^3,2,7,10-tetramethyl-1^2,6-dioxo-7-aza-1(6,4)-oxazinana-3(2,3)-oxirana-8(1,3)-benzenacyclotetradecaphane-10,12-dien-4-yl N-(3-((2-(4-((Z)-icos-11-enoyl)piperazin-1-yl)-2-oxoethyl)thio)propanoyl)-N-methyl-L-alaninate]
AGS; 5 nM, 2 days
  targeting of gastric cancer cells: effectively targeted gastric cancer cells
AGS; 100 nM
  time within which gastric cancer cells died after treatment: ≤ 2 days
NCI-N87
  time within which gastric cancer cells died after treatment: ≤ 2 days
NIH-3T3 cells
  changes in normal mouse fibroblast cells: no noticeable changes

## CCCCCCCC/C=C\CCCCCCCCCC(=O)Nc1ccc([N+](=O)[O-])c2nonc12 [NBD-EA, NBD-cis-11-Eicosenoic acid (C20:1, n-9)]
Dysplastic cells; 6 h after treatment
  NBD fluorescent signal in dysplastic cells: not detectable
Dysplastic cells; 24 h
  NBD fluorescent signal in dysplastic cells: strongly accumulated in mitochondria
Dysplastic cells; 48 h
  NBD fluorescent signal in dysplastic cells: weakly maintained

## C1CCC(C(CC2CCCCN2)C2CCCCC2)CC1 (stereo not drawn) [perhexiline]
Dysplastic organoids [4]; A939572, EA and perhexiline 10 μM, 3 days
  organoid growth after co-treatment: did not display any significant increase in organoid growth
Dysplastic organoids [4]; perhexiline 10 μM with A939572 and EA, 3 days
  effect of FA oxidation inhibition on rescue by EA: abolished rescue effects of EA in dysplastic organoids
